PubChem BioAssay (NCI)
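Results reflect a 48-hour exposure of cells in 96-well plates to compound at five concentrations. Here, GI50 denotes the concentration required for 50% inhibition of growth. TGI marks complete inhibition of growth.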

Columns and labels:
Experiment in all cases: growth of human tumour cells (NCI), 48 h
MDA-MB-231 breast = test system: MDA-MB-231 breast
SK-MEL-5 melanoma = test system: SK-MEL-5 melanoma
UACC-62 melanoma = test system: UACC-62 melanoma
SK-MEL-2 melanoma = test system: SK-MEL-2 melanoma
IGROV1 ovarian = test system: IGROV1 ovarian
HT29 colon = test system: HT29 colon
NCI-H522 lung = test system: NCI-H522 lung
OVCAR-4 ovarian = test system: OVCAR-4 ovarian
NCI-H460 lung = test system: NCI-H460 lung
MOLT-4 leukemia = test system: MOLT-4 leukemia

Row | SMILES | TGI (MDA-MB-231 breast) | TGI (SK-MEL-5 melanoma) | TGI (UACC-62 melanoma) | TGI (SK-MEL-2 melanoma) | TGI (IGROV1 ovarian) | TGI (HT29 colon) | TGI (NCI-H522 lung) | TGI (OVCAR-4 ovarian) | TGI (NCI-H460 lung) | TGI (MOLT-4 leukemia) | GI50 (MDA-MB-231 breast) | GI50 (SK-MEL-5 melanoma) | GI50 (UACC-62 melanoma) | GI50 (SK-MEL-2 melanoma) | GI50 (IGROV1 ovarian) | GI50 (HT29 colon) | GI50 (NCI-H522 lung) | GI50 (OVCAR-4 ovarian) | GI50 (NCI-H460 lung) | GI50 (MOLT-4 leukemia)
1 | CC(=O)OC1CCC2(C)C(CCC3C2CC(=O)C2(C)C3CC(N3CC3)C2C(C)=O)C1 (stereo not drawn) | 38.1 µM | 32.3 µM | 36.5 µM | 36.1 µM | 56.4 µM | > 100 µM | 29.8 µM | > 100 µM | 33.9 µM | 34.4 µM |  |  |  |  |  |  |  |  |  | 
2 | CC/C=C\C[C@H](F)C/C=C1/C(=O)C=C[C@@H]1C/C=C\CCCC(=O)OC | 6.7 µM | 3.13 µM | 2.1 µM | 13 µM | 8.58 µM | 4.67 µM | 5.08 µM | 10.1 µM | 4.11 µM | 5.27 µM | 1.91 µM | 1.29 µM | 0.948 µM | 4.88 µM | 1.94 µM | 1.69 µM | 1.32 µM | 3.35 µM | 1.44 µM | 1.45 µM
3 | COc1cc2c(c(OC)c1OC)-c1ccc(O)cc1[C@@H](NC(C)=O)CC2 | > 100 µM | 0.195 µM | > 100 µM | > 100 µM |  | 0.141 µM | 0.097 µM | > 100 µM | > 34.9 µM |  | 0.0689 µM | 0.0412 µM | 0.0582 µM | 0.0423 µM | 0.0515 µM | 0.0339 µM | 0.0242 µM | 0.0706 µM | 0.0363 µM | 0.0578 µM
4 | CC(=O)/C(=C/c1ccccc1)C(=O)CC(C)C | 41.1 µM | 26.9 µM | 20.9 µM | 60.7 µM | 33.6 µM | 12.8 µM | 22 µM | 41.4 µM | 38.5 µM | 79.4 µM | 18.2 µM | 13.5 µM | 6.54 µM | 24.5 µM | 16.4 µM | 3.8 µM | 9.68 µM | 17.6 µM | 17.5 µM | 3.59 µM
5 | CSC(=NC#N)S/C=C/C(=O)c1ccccc1 | > 100 µM | > 100 µM | > 100 µM | > 100 µM |  | > 100 µM | 47.8 µM | > 100 µM | > 100 µM | > 100 µM | 39.2 µM | 45.9 µM | 33.4 µM | 70.6 µM |  | 37.3 µM | 19.8 µM | > 100 µM | > 100 µM | 22.6 µM
6 | COC1C(O)CC(OC2CC(OC3CC(O[C@@H]4C(=O)c5c(cc6cc(OC7CC(OC8CC(O)C(O)C(C)O8)C(O)C(C)O7)c(C)c(O)c6c5O)CC4[C@H](OC)C(=O)O)OC(C)C3O)OC(C)C2O)OC1C (stereo partly drawn) | > 33.3 µM | 8.74 µM | 2.54 µM | 10.6 µM | > 33.3 µM | 17.9 µM | > 33.3 µM | > 33.3 µM | > 33.3 µM | > 33.3 µM | 4.43 µM | 1.34 µM | 0.842 µM | 1.47 µM | 1.76 µM | 2.55 µM | 1.7 µM | 4.9 µM | 1.31 µM | 2.08 µM
7 | Cc1c2ccn(O)cc2c(C)c2c1nc1ccccc12 | > 100 µM | > 100 µM | 41.6 µM | > 50 µM | 55.8 µM | > 100 µM | 22.3 µM | > 100 µM | 37.9 µM | 16.8 µM |  |  |  |  |  |  |  |  |  | 
8 | CCCCC(CCCCCC(CCCC)NCc1ccc2c(c1)OCO2)NCc1ccc2c(c1)OCO2 (stereo not drawn) | 1.83 µM | 2 µM | 3.12 µM | 0.835 µM | 2.22 µM | 0.687 µM | 1.27 µM | 2.81 µM | 0.519 µM | 0.653 µM | 0.539 µM | 0.758 µM | 1.57 µM | 0.336 µM | 0.887 µM | 0.262 µM | 0.604 µM | 1.46 µM | 0.236 µM | 0.262 µM
9 | Cc1ccc2oc(=O)cc(/C(=C3/C=CC=N3)c3ccc[nH]3)c2c1 | 3.07 µM | 1.29 µM | 1.98 µM | 2.89 µM | 6.5 µM | 1.42 µM | 5.22 µM | 9.56 µM | 3.52 µM | 2.14 µM | 0.802 µM | 0.356 µM | 0.373 µM | 0.74 µM | 0.468 µM | 0.349 µM | 1.53 µM | 1.58 µM | 0.353 µM | 0.378 µM
10 | N#Cc1c(NCc2ccccc2)nc(NCc2ccccc2)c(C#N)c1-c1ccc(O)cc1 | 33 µM | 34.3 µM | > 100 µM | 90.7 µM | 74.8 µM | > 100 µM | 75.1 µM | > 100 µM | 53.6 µM | > 100 µM | 2.68 µM | 15.3 µM | 21.5 µM | 41.1 µM | 23.5 µM | 60.2 µM | 20.2 µM | 27.7 µM | 21.2 µM | 20.4 µM
11 | CC1=C2CC(C)(C)/C=C\C(=O)/C(C)=C\C3=C[C@H](C)C[C@]3(O2)C1=O | 9.33 µM | 8.06 µM | 3.37 µM | 7.69 µM | 5.44 µM | 2.76 µM | 0.651 µM | 5.28 µM | 14 µM | 1.53 µM |  |  |  |  |  |  |  |  |  | 
12 | COC(=O)c1ccc2c(c1)C(=O)c1c-2n(CCCCl)c(=O)c2cc([N+](=O)[O-])ccc12 | > 100 µM | > 100 µM | > 100 µM | > 100 µM | > 100 µM | > 100 µM | > 100 µM | > 100 µM | > 100 µM | > 100 µM | > 100 µM | 85.7 µM | 27.5 µM | > 100 µM | 34.9 µM | 76.8 µM | 51 µM | > 100 µM | 23.1 µM | 26 µM
13 | CC(=O)O[C@H]([C@H](OC(C)=O)[C@H](C)OC(C)=O)[C@@H](/C=C/[C@@H]1CC=CC(=O)O1)OC(C)=O | > 100 µM | > 100 µM | > 100 µM | 74.4 µM |  | > 100 µM | 4.73 µM | > 100 µM | > 100 µM | > 100 µM | > 100 µM | 44.5 µM | > 100 µM | 24 µM |  | 72.1 µM | 2.05 µM | 45.3 µM | 42 µM | > 100 µM
14 | CC(=O)Nc1cc2cc(N)ccc2oc1=O | > 100 µM | > 100 µM |  | > 100 µM | > 100 µM | > 100 µM | > 100 µM | > 100 µM | > 100 µM | > 100 µM |  |  |  |  |  |  |  |  |  | 
